Data on nine compounds can be found in patent publication EP0727211A1, “Use of src SH2 specific compounds to treat a bone resorption disease” (SMITHKLINE BEECHAM CORPORATION, priority 1995, dated 1996).

Some results are limits rather than exact numbers.

For this test, the target named is T1, human Grb2 SH2 domain (Homo sapiens, UniProt P62993).
T1 construct: SH2 domain of human Grb2 (amino acids 58-159); made in house; host or cells: E. coli (pGEX-2T)
The test is described as follows: SH2 domain / pY peptide binding assay (ELISA-based, 96 well plate), Grb2 SH2. As to conditions: for Ki: Ki calculated from IC50 by the expanded equation, Table II; for IC50: cloned human SH2 domain fusion protein, 0.1 uM biotinylated pY peptide, Table I. On the procedure:
The inhibitory activity of compounds at the different human SH2 domains was determined in vitro using SH2 domains expressed as fusion proteins in E. coli. The SH2 domains used herein were the human forms of the src SH2 domain, Grb2 SH2 domain, lck SH2 domain, fyn SH2 domain, SH-PTP2 SH2 domain, p85 SH2 domain and hcp SH2 domain.
Fusion proteins having the structure GST-X-SH2 were prepared as described in the GST gene fusion kit system available from Pharmacia (New Jersey). GST is the tagging sequence glutathione s-transferase epitope (SEQ ID NO: 8) for fyn, Grb2 and SH-PTP2 and is the tagging sequence glutathione s-transferase epitope (SEQ ID NO: 9) for p85. SH2 refers to the SH2 domains of fyn, Grb2, p85 and SH-PTP2 which were expressed and purified using glutathione Sepharose 4B (Pharmacia) according to "Current Protocols in Molecular Biology", ed. FM Ausubel et al., pub. John Wiley and Sons, Inc., (1995), p 16.7.1. X is an appropriate linker, preferably of 6 to 21 base pairs, used to keep the SH2 construct in frame and complement cloning. As such, the sequence of X is not critical. One skilled in the art can readily construct the appropriate linker. The DNA sequence encoding each GST-X-SH2 fusion protein was designed such that the indicated restriction sites (BamH1 and EcoRI) flank the SH2 region. The vector used in the instant experiments was the E. coli expression vector pGEX-2T (Pharmacia) for fyn, Grb2 and SH-PTP2, and pGEX-3X (Pharmacia) for p85. Each of these vectors result in SH2 constructs having additional C-terminal amino acids as described below.
Human Grb2 SH2 domain: The sequence encoding the SH2 domain of human Grb2 (amino acids 58-159) (Lowenstein, E. et al., Cell 70, 431-442 (1992)) was cloned into the BamHI and EcoRI sites of the expression vector pGEX-2T. The SH2 domain including the additional C-terminal amino acids isoleucine-histidine-arginine-aspartate (SEQ ID NO: 25) was cloned by PCR techniques known to those skilled in the art to yield the expressed fusion protein GST-X-Grb2.
The binding assays for the SH2 domains and pY peptides were performed in an ELISA-based 96 well plate assay. In Millipore 96 well filter plates, hydrophilic Durapore® (pore size 0.65um Cat. No. MADVN6550), was added 2 ul (50% suspension) of Protein-G Sepharose (available from Pharmacia of N.J. Cat. No. 17-0618-01) and either 2 ul of 2 mg/ml of MAB178. (for gp120/SH2 domain fusion proteins src, lck and hcp) or 0.25 ul of anti-GST polyclonal antisera (available from Pharmacia of N.J.) (for GST/SH2 domain fusion proteins fyn, Grb2, p85 and SH-PTP2). 10 pmol of the subject SH2 domain fusion protein were added to their respective wells. The volume was brought to 100 ul with TBS-T (tris buffered saline plus 0.05% tween-20), incubated and shaken at room trmperature for 1 hr. then washed 1x with TBS-T (4°C). 90 ul of TBS-T were then added to each well. Specific pY biotinylated peptides were diluted to a concentration of 1.0 uM in TBS-T (these peptides can be obtained from Bachem Bioscience of Pennsylvania, Genosys Biotechnologies of Texas and California Peptide Research of California). 10 ul was aliquoted per well to yield a final concentration of 0.1 uM (approx, the Kd for each SH2 domain/peptide pair) and a final volume of 100 ul. The assay plates were incubated until equilibrium binding was attained (3 hr at 4°C with shaking). The assay plates were washed 2 X per well TBS-T (4°C), then 100 ul of SABC (Strepavidin biotinylated horseradish peroxidase complex, available from the Zymed corporation of California cat. no. 93-0043, 1 drop reagent A (streptavidin) and 1 drop of reagent B (AH-biotin conjugated-horseradish peroxidase) per 10 ml of TBS-T, incubated at 37°C for 30 minutes, then cooled to 4°C) was added per well, then incubated at 4°C for 30-60 minutes. The plates were then washed 4 X with TBS-T (4°C) (250 ul/well)/wash). […]

T1 sequence (P62993 58-159): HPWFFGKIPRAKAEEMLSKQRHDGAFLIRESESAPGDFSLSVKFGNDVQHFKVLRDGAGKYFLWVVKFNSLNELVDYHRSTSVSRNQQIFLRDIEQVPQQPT

For the compound `Cc1nnc(SCC2=C(C(=O)O)N3C(=O)[C@@H](NC(=O)C(N)c4ccc(C(=O)O)cc4)[C@H]3SC2)s1` (stereo partly drawn) [Compound 1, 7-[D,L-α-Amino-α-(4-carboxyphenyl)acetamido]-3-[2-(5-methyl-1,3,4-thiadiazolyl)thiomethyl]Δ^3-cephem-4-carboxylic Acid], the Ki was over 1000 µM and the half-inhibitory concentration (IC50) was over 300 µM.
`Cc1ccc(C(=O)c2ccc(C(=O)c3ccc(CC=O)cc3)cc2)cc1` [Compound 4, 4-[4-(4-Methylbenzoyl)benzoyl]phenylacetaldehyde]: the inhibition constant Ki is over 1000 µM and the half-maximal inhibitory concentration (IC50) was over 300 µM.
Turning to “4-acetamido-benzamido-trans-4-methyl-cyclohexyl-N-1-(amino-R-2-(methoxy methyl)-pyrrolidine) carboxamide [Compound 8]”, the inhibition constant Ki was 330 µM and the IC50 was over 300 µM.
On the same counts, the results for `CCCCCCNC(=O)[C@H]1CC[C@H](CNC(=O)c2ccc([N+](=O)[O-])cc2)CC1` [Compound 7, 4-nitro-benzamido-trans-4-methyl-cyclohexyl-N-hexyl carboxamide] are over 1000 µM and over 300 µM.
The matching figures for `CCCNC(=O)[C@H]1CC[C@H](CNC(=O)/C=C/c2ccc(C=O)cc2)CC1` [Compound 9, 4-formyl-E-cinnamido-trans-4-methyl-cyclohexyl-N-(propyl) carboxamide]: over 1000 µM and over 300 µM.
For `Cc1nc2sc3c(c2c2[nH][nH]c(=O)c12)CCC1(C3)OCCO1` [Compound 3, 8,8-Ethylenedioxy-2,3,7,8,9,10-hexahydro-4-methyl-1H-benzo[b]thieno[2,3-b]pyrazolo[3,4-d]pyridin-3-one], the Ki was over 1000 µM and the half-inhibitory concentration (IC50) was over 300 µM.
On the same counts, the results for `Cc1nc2sc3c(c2c2[nH][nH]c(=O)c12)CCCC3` [Compound 10, 2,3,7,8,9,10-Hexahydro-4-methyl-1H-benzo[b]thieno[2,3-b]pyrazolo[3,4-d]pyridin-3-one] are over 1000 µM and over 300 µM.
On the same counts, the results for `N[C@@H](Cc1cc(Br)c(Oc2ccc(O)c(Cc3ccc(O)nn3)c2)c(Br)c1)C(=O)O` [Compound 2, L-3,5-Dibromo-3'-(6-oxo-3(1H)-pyridazinylmethyl)-thyronine] are over 1000 µM and over 300 µM.
On the same counts, the results for `Cc1nc2sc3c(c2c2c1c(=O)[nH]n2C)CCC1(C3)OCCO1` [Compound 5, 1,4-Dimethyl-8,8-ethylenedioxy-2,3,7,8,9,10-hexahydro-1H-benzo[b]thieno[2,3-b]pyrazolo[3,4-d]pyridin-3-one] are over 1000 µM and over 300 µM.
